Measured values taken from the supplement of paper PMC10307832.

Legend:
Test in all cases: relative viability (nuclei count vs DMSO), 5 days (fraction); higher = more cells survive
LXF-289 = system: LXF-289
Procedure, shortened: (§1)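 Relative viability divides the nuclei count in treated wells by that in vehicle wells. Lung cancer cell lines were seeded in 1536-well plates, dosed by pin tool the next day, and fixed and stained after 5 days in one step with final 0.05% Triton X-100, 1% formaldehyde and 1 ug/ml Hoechst. Dosing was a single drug or a fixed anchor-drug dose plus five library-drug doses (not always all listed) in √10 steps, and values are medians of duplicate plates imaged at 4×.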

NCI-H2170 = system: NCI-H2170
Procedure, shortened: as §1

NCI-H1944 = system: NCI-H1944
Procedure, shortened: as §1

UMC-11 = system: UMC-11
Procedure, shortened: as §1

NCI-H1915 = system: NCI-H1915
Procedure, shortened: as §1

NCI-H1755 = system: NCI-H1755
Procedure, shortened: as §1

NCI-H1792 = system: NCI-H1792
Procedure, shortened: as §1

SK-LU-1 = system: SK-LU-1
Procedure, shortened: as §1

HCC-366 = system: HCC-366
Procedure, shortened: as §1

COR-L 105 = system: COR-L 105
Procedure, shortened: as §1

NCI-H1793 = system: NCI-H1793
Procedure, shortened: as §1

NCI-H358 = system: NCI-H358
Procedure, shortened: as §1

NCI-H2085 = system: NCI-H2085
Procedure, shortened: as §1

LC-2-ad = system: LC-2-ad
Procedure, shortened: as §1

EPLC-272H = system: EPLC-272H
Procedure, shortened: as §1

LU99A = system: LU99A
Procedure, shortened: as §1

HCC-78 = system: HCC-78
Procedure, shortened: as §1

SW 900 = system: SW 900
Procedure, shortened: as §1

A-427 = system: A-427
Procedure, shortened: as §1

NCI-H1975 = system: NCI-H1975
Procedure, shortened: as §1

LCLC-97TM1 = system: LCLC-97TM1
Procedure, shortened: as §1

HOP-62 = system: HOP-62
Procedure, shortened: as §1

NCI-H460 = system: NCI-H460
Procedure, shortened: as §1

O=C(O)c1ccc(-c2c[nH]c3ncc(-c4ccccc4)cc23)cc1C1CCCC1 + Cc1nc(Nc2ncc(C(=O)Nc3c(C)cccc3Cl)s2)cc(N2CCN(CCO)CC2)n1 [Dasatinib] (partner 0.075 µM)
relative viability (LXF-289; first compound 0.04 µM): 0.214 | relative viability (LXF-289; first compound 0.1265 µM): 0.258 | relative viability (LXF-289; first compound 0.4 µM): 0.181 | relative viability (LXF-289; first compound 1.265 µM): 0.206 | relative viability (NCI-H2170; first compound 0.04 µM): 0.522 | relative viability (NCI-H2170; first compound 0.1265 µM): 0.623 | relative viability (NCI-H2170; first compound 0.4 µM): 0.529 | relative viability (NCI-H2170; first compound 1.265 µM): 0.564 | relative viability (NCI-H1944; first compound 0.04 µM): 0.227 | relative viability (NCI-H1944; first compound 0.1265 µM): 0.254 | relative viability (NCI-H1944; first compound 0.4 µM): 0.216 | relative viability (NCI-H1944; first compound 1.265 µM): 0.193 | relative viability (UMC-11; first compound 0.04 µM): 0.505 | relative viability (UMC-11; first compound 0.1265 µM): 0.496 | relative viability (UMC-11; first compound 0.4 µM): 0.501 | relative viability (UMC-11; first compound 1.265 µM): 0.433 | relative viability (NCI-H1915; first compound 0.04 µM): 0.297 | relative viability (NCI-H1915; first compound 0.1265 µM): 0.331 | relative viability (NCI-H1915; first compound 0.4 µM): 0.277 | relative viability (NCI-H1915; first compound 1.265 µM): 0.271 | relative viability (NCI-H1755; first compound 0.04 µM): 0.394 | relative viability (NCI-H1755; first compound 0.1265 µM): 0.541 | relative viability (NCI-H1755; first compound 0.4 µM): 0.423 | relative viability (NCI-H1755; first compound 1.265 µM): 0.436 | relative viability (NCI-H1792; first compound 0.1265 µM): 0.8 | relative viability (NCI-H1792; first compound 0.4 µM): 0.856 | relative viability (NCI-H1792; first compound 1.265 µM): 0.847 | relative viability (SK-LU-1; first compound 0.04 µM): 0.169 | relative viability (SK-LU-1; first compound 0.1265 µM): 0.194 | relative viability (SK-LU-1; first compound 0.4 µM): 0.157 | relative viability (SK-LU-1; first compound 1.265 µM): 0.165 | relative viability (HCC-366; first compound 0.04 µM): 0.583 | relative viability (HCC-366; first compound 0.1265 µM): 0.786 | relative viability (HCC-366; first compound 0.4 µM): 0.689 | relative viability (HCC-366; first compound 1.265 µM): 0.669 | relative viability (COR-L 105; first compound 0.04 µM): 0.318 | relative viability (COR-L 105; first compound 0.1265 µM): 0.376 | relative viability (COR-L 105; first compound 0.4 µM): 0.383 | relative viability (COR-L 105; first compound 1.265 µM): 0.391 | relative viability (NCI-H1793; first compound 0.04 µM): 0.376 | relative viability (NCI-H1793; first compound 0.1265 µM): 0.473 | relative viability (NCI-H1793; first compound 0.4 µM): 0.373 | relative viability (NCI-H1793; first compound 1.265 µM): 0.342 | relative viability (NCI-H358; first compound 0.04 µM): 0.143 | relative viability (NCI-H358; first compound 0.1265 µM): 0.209 | relative viability (NCI-H358; first compound 0.4 µM): 0.209 | relative viability (NCI-H358; first compound 1.265 µM): 0.152 | relative viability (NCI-H2085; first compound 0.04 µM): 0.259 | relative viability (NCI-H2085; first compound 0.1265 µM): 0.268 | relative viability (NCI-H2085; first compound 0.4 µM): 0.307 | relative viability (NCI-H2085; first compound 1.265 µM): 0.247 | relative viability (LC-2-ad; first compound 0.04 µM): 0.505 | relative viability (LC-2-ad; first compound 0.1265 µM): 0.813 | relative viability (LC-2-ad; first compound 0.4 µM): 0.489 | relative viability (LC-2-ad; first compound 1.265 µM): 0.463 | relative viability (EPLC-272H; first compound 0.04 µM): 0.331 | relative viability (EPLC-272H; first compound 0.1265 µM): 0.416 | relative viability (EPLC-272H; first compound 0.4 µM): 0.328 | relative viability (EPLC-272H; first compound 1.265 µM): 0.337 | relative viability (LU99A; first compound 0.04 µM): 0.599 | relative viability (LU99A; first compound 0.1265 µM): 0.748 | relative viability (LU99A; first compound 0.4 µM): 0.626 | relative viability (LU99A; first compound 1.265 µM): 0.448 | relative viability (HCC-78; first compound 0.1265 µM): 0.516 | relative viability (HCC-78; first compound 0.4 µM): 0.485 | relative viability (HCC-78; first compound 1.265 µM): 0.406 | relative viability (SW 900; first compound 0.04 µM): 0.577 | relative viability (SW 900; first compound 0.1265 µM): 0.712 | relative viability (SW 900; first compound 0.4 µM): 0.584 | relative viability (SW 900; first compound 1.265 µM): 0.52 | relative viability (A-427; first compound 0.04 µM): 0.672 | relative viability (A-427; first compound 0.1265 µM): 0.749 | relative viability (A-427; first compound 0.4 µM): 0.64 | relative viability (A-427; first compound 1.265 µM): 0.595 | relative viability (NCI-H1975; first compound 0.04 µM): 0.446 | relative viability (NCI-H1975; first compound 0.1265 µM): 0.356 | relative viability (NCI-H1975; first compound 0.4 µM): 0.408 | relative viability (NCI-H1975; first compound 1.265 µM): 0.376 | relative viability (LCLC-97TM1; first compound 0.04 µM): 0.836 | relative viability (LCLC-97TM1; first compound 0.1265 µM): 0.893 | relative viability (LCLC-97TM1; first compound 0.4 µM): 0.881 | relative viability (LCLC-97TM1; first compound 1.265 µM): 0.686 | relative viability (HOP-62; first compound 0.04 µM): 0.598 | relative viability (HOP-62; first compound 0.1265 µM): 0.669 | relative viability (HOP-62; first compound 0.4 µM): 0.78 | relative viability (HOP-62; first compound 1.265 µM): 0.666 | relative viability (NCI-H460; first compound 0.04 µM): 0.566 | relative viability (NCI-H460; first compound 0.1265 µM): 0.676 | relative viability (NCI-H460; first compound 0.4 µM): 0.472 | relative viability (NCI-H460; first compound 1.265 µM): 0.428
